By inhibition is commonly meant how much of the control response was suppressed.

The structures appear in SMILES notation. Where a name gives a salt, the structure may show the parent alone.

The first assay deals with T1, HIV protease (Human immunodeficiency virus type 1 group M subtype B, UniProt P04585).
T1 construct: and purified protease
Briefly: HIV Protease Assay. Type of assay: biochemical. As to conditions: pH 5.5, 10 μM inhibitor, 4% DMSO, 450 μM substrate, pH 5.5, 30 minutes at 37° C., RP-HPLC; read-out: HIV Protease % Inhibition at 10 μM. The gist of the method:
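At a single final concentration of 10 μM (4% DMSO), inhibitors were added to a 30-minute, 37° C reaction of purified enzyme with 450 μM H2N-Val-Ser-Gln-Asn-(β-naphthyl-alanine)-Pro-Val-Ile-OH at pH 5.5 (sodium acetate, BSA). Hydrolysis was quantified by reverse-phase HPLC with 220 nm detection after acid quench.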
As for `CC(C)[C@H](NC(=O)OCc1ccccc1)C(=O)N[C@@H](Cc1ccccc1)[C@@H](O)CNC[C@@H](O)[C@H](Cc1ccccc1)NC(=O)OC(C)(C)C` [Compound 115, [S-[1R*,2R*(2S*.3R*)]-N-[3-[[3-[[(1,1-Dimethylethoxy)carbonyl]amino]-2-hydroxy-4-phenylbutyl]amino]-2-hydroxy-1-phenylmethyl)propyl]-N^2-[(phenylmethoxy)-carbonyl]-L-valinamide], the inhibition at 10 µM amounted to 58%.

As to `CC(C)[C@H](NC(=O)OCc1ccccc1)C(=O)N[C@@H](Cc1ccccc1)[C@@H](O)CNC[C@H](O)[C@H](Cc1ccccc1)NC(=O)OC(C)(C)C` [Compound 117, [S-[1R*,2R*(2R*,3R*)]]-N-[3-[[3-[[(1,1-Dimethylethoxy)carbonyl]amino]-2-hydroxy-4-phenylbutyl]amino]-2-hydroxy-1-(phenylmethyl)propyl]-N^2-[(phenylmethoxy)-carbonyl]-L-valinamide], the inhibition at 10 µM is 14%.

In the case of `CC(C)[C@H](NC(=O)OCc1ccccc1)C(=O)N[C@@H](Cc1ccccc1)[C@@H](O)CNC[C@H](O)[C@H](Cc1ccccc1)NC(=O)[C@@H](NC(=O)OCc1ccccc1)C(C)C` [Compound 119, [S-(1R*,2R*)]-N,N'-[Iminobisr[2-hydroxy-1-(phenylmethyl)-3,1-propanediyl]]bis[N^2-[phenylmethyloxy)carbonyl]-L-valinamidel], the inhibition at 10 µM turned out to be 10%.

On to `CC(C)(C)CCN[C@@H](Cc1ccccc1)[C@H](O)CNC[C@@H](O)[C@H](Cc1ccccc1)NC(=O)OC(C)(C)C` [Compound 127, [1S-[1R*,2S*(2S*,3R*)]]-[3-[[3-[(3,3-Dimethylbutyl)amino]-2-hydroxy-4-phenylbutyl]amino]-2-hydroxy-1-(phenylmethyl)propyl]carbamic acid, 1,1-dimethylethyl ester], for which the inhibition at 10 µM came out at 15%.

Take `CN(C(=O)NC(C)(C)C)[C@@H](Cc1ccccc1)[C@H](O)CNC[C@@H](O)[C@H](Cc1ccccc1)NC(=O)OC(C)(C)C` [Compound 136, [1S-[1R*,2S*(2S*,3R*)]]-[3-[[3-[[[(1,1-Dimethylethyl)amino]carbonyl]methylamino]-2-hydroxy-4-phenylbutyl]amino]-2-hydroxy-1-(phenylmethyl))propyl]carbamic acid, 1,1-dimethylethyl ester]: the inhibition at 10 µM amounted to 73%.

As to `CC(C)(C)OC(=O)N[C@@H](Cc1ccccc1)[C@H](O)CNC[C@@H](O)[C@H](Cc1ccccc1)N1CC(C)(C)OC1=O` [Compound 140, [1S-[1R*,2S*(2S*,3R*)]]-[3-[[3-(5,5-Dimethyl-2-oxo-3-oxazolidinyl)-2-hydroxy-4-phenylbutyl]amino]-2-hydroxy-1-(phenylmethyl)-propyl]carbamic acid, 1,1-dimethylethyl ester], the inhibition at 10 µM came out at 61%.

For `CO[C@H](CNC[C@@H](O)[C@H](Cc1ccccc1)NC(=O)OC(C)(C)C)[C@H](Cc1ccccc1)NC(=O)OC(C)(C)C` [Compound 142, [1S-[1R*,2S*(2S*,3R*)]]-[3-[[3-[[(1,1-Dimethylethoxy)carbonyl]amino]-2-hydroxy-4-phenylbutyl]amino]-2-methoxy-1-(phenylmethyl)propyl]carbamic acid 1,1-dimethylethyl ester], the inhibition at 10 µM worked out at 30%.

In the case of `CC(C)(C)OC(=O)N[C@@H](Cc1ccccc1)[C@H](O)CNC[C@@H](O)[C@H](Cc1ccccc1)NC(=O)OC(C)(C)COCc1ccccc1` [Compound 157, [1S-(1R*,2S*)]-[Iminobis[2-hydroxy-1-(phenylmethyl)-3,1-propanediyl)]biscarbamic acid, 1,1-dimethylethyl 1,1-dimethyl-2-(phenylmethoxy)-ethyl ester], the inhibition at 10 µM was found to be 90%.

For `CC(C)(C)OC(=O)N[C@@H](Cc1ccccc1)[C@H](O)CNC[C@@H](O)[C@H](Cc1ccccc1)NC(=O)OC(C)(C)CCCN` [Compound 180, [1S-(1R*,2S*)]-[Iminobis[2-hydroxy-1-(phenylmethyl)-3,1-propanediyl]biscarbamic acid, 4-amino-1,1-dimethylbutyl 1,1-dimethylethyl ester, fumarate (2:3) salt], the inhibition at 10 µM turned out to be 73%.

In the case of `CC(C)(C)CS(=O)(=O)N[C@@H](Cc1ccccc1)[C@H](O)CNC[C@@H](O)[C@H](Cc1ccccc1)NC(=O)OC(C)(C)C` [Compound 181, [1S-[1R*,2S*(2S*,3R*)]]-[3-[[3-[[(2,2-Dimethy]propyl)sulfonyl]amino]-2-hydroxy-4-phenylbutyl]amino]-2-hydroxy-1-(phenylmethyl)propyl]carbamic acid 1,1-dimethylethyl ester], the inhibition at 10 µM was 46%.

Take `CC(C)(C)OC(=O)N[C@@H](Cc1ccccc1)[C@H](O)CNC[C@@H](O)[C@H](Cc1ccccc1)N[S+]([O-])C(C)(C)C` (stereo partly drawn) [Compound 182, [1S-[1R*,2S*(2S*,3R*)]]-[3-[[(1,1-Dimethylethyl)-sulfinyl]amino-2-hydroxy-4-phenylbutyl]amino]2-hydroxy-1-(phenylmethyl)propyl]carbamic acid, 1,1-dimethylethyl ester]: the inhibition at 10 µM is 41%.

As to `CC(C)(C)OC(=O)N[C@@H](Cc1ccccc1)[C@H](O)CNC[C@@H](O)[C@H](Cc1ccccc1)NS(=O)(=O)C(C)(C)C` [Compound 183, [1S-[1R*,2S*(2S*,3R*)]]-[3-[[3-[[(2,2-Dimethylethyl)sulfonyl]amino]-2-hydroxy-4-phenylbutyl]amino]-2-hydroxy-1-(phenylmethyl)proyl]carbamic acid, 1,1-dimethylethyl ester], the inhibition at 10 µM came out at 35%.

Regarding `CC(C)(C)OC(=O)N[C@@H](Cc1ccccc1)[C@H](O)CN[C@H](Cc1ccccc1)[C@@H](O)CNC(=O)OCc1ccccc1` [Compound 185, [2S-[2R*,3S*(2S*,3R*)]]-[3-[[3-[[(1,1-Dimethylethoxy)carbonyl]amino-2-hydroxy-4-phenylbutyl]amino-2-hydroxy-4-phenylbutyl]carbamnic acid, phenylmethyl ester], the inhibition at 10 µM was 5%.

In the case of `CC(C)(C)OC(=O)N[C@@H](Cc1ccccc1)[C@H](O)CN[C@@H](Cc1ccccc1)C(O)CNC(=O)OCc1ccccc1` (stereo partly drawn) [Compound 186, [3S-[3R*,2(R*,S*) [2S*,3R*)]-3-[[3-(1,1-Dimethylethoxy)carbonyl]amino]-2-hydroxy-4-phenylbutyl]amino]-2-hydroxy-4-phenylbuty 1]carbamic acid, phenylmethyl ester], the inhibition at 10 µM was determined as 0%.

Consider `CC(C)(C)OC(=O)NC[C@H](O)[C@@H](Cc1ccccc1)NC[C@@H](O)[C@H](Cc1ccccc1)NC(=O)OC(C)(C)C` [Compound 187, [2S-[2R*,3S*(2S*,3R*)]]-[3-[[3-[[(1,1-Dimethylethoxy)carbonyl]amino]-2-hydroxy-4-phenylbutyl]amino]-2-hydroxy-4-phenylbutyl]carbamic acid, 1,1-dimethylethyl ester], for which the inhibition at 10 µM came to 28%.

In the case of `CC(C)(C)OC(=O)N[C@@H](Cc1ccccc1)[C@H](O)CN[C@H](Cc1ccccc1)[C@H](O)CNC(=O)OCc1ccccc1` [Compound 189, [2R-[2R*,3R*(2R*,3S*)]]-[3-[[3-[[(1,1-Dimethylethoxy)carbonyl]amino]-2-hydroxy-4-phenylbutyl]amino]-2-hydroxy-4-phenylbutyl]-carbamic acid, phenylmethyl ester], the inhibition at 10 µM is 23%.

`CC(C)(C)OC(=O)NC[C@@H](O)[C@@H](Cc1ccccc1)NC[C@@H](O)[C@H](Cc1ccccc1)NC(=O)OC(C)(C)C` [Compound 190, [2R-[2R*,3R*(2R*,3S*)]]-[3-[[3-[[(1,1-Dimethylethoxy)carbonyl]amino]-2-hydroxy-4-phenyl-butyl]amino]-2-hydroxy-4-phenylbutyl]carbamic acid, 1,1-dimethylethyl ester]: the inhibition at 10 µM is below 16%.

As for `CC(C)(C)OC(=O)NCC(O)(CNC[C@@H](O)[C@H](Cc1ccccc1)NC(=O)OC(C)(C)C)Cc1ccccc1` (stereo partly drawn) [Compound 191, [1S-(1R*,2S*)]-[3-[[3-[[(1,1-Dimethylethoxy)carbonyl]amino]-2-hydroxy-2-(phenylmethyl)propyl]amino]-2-hydroxy-1-(phenylmethyl)propyl]carbamic acid, 1,1-dimethyl-ethyl ester], the inhibition at 10 µM is 13%.

Turning to `CC(C)(C)OC(=O)N[C@@H](Cc1ccccc1)[C@H](O)CNCC(C)(O)[C@H](Cc1ccccc1)NC(=O)OC(C)(C)C` (stereo partly drawn) [Compound 192, [1S-[1R*,2S*(3R*)]]-[3-[[3-[[(1,1-Dimethylethoxy)carbonyl]amino]-2-hydroxy-2-methyl-4-phenylbutyl]amino]-2-hydroxy-1-(phenylmethyl)propyl]amino]carbamic acid, 1,1-dimethylethyl ester], the inhibition at 10 µM is 85%.

As for `CC(C)(C)OC(=O)N[C@@H](Cc1ccccc1)C(=O)CNC[C@@H](O)[C@H](Cc1ccccc1)NC(=O)OC(C)(C)C` [Compound 193, [1S-[1R*,2S*(3R*)]]-[3-[[3-[[(1,1-Dimethylethoxy)carbonyl]amino]-2-oxo-4-phenylbutyl]amino]-2-hydroxy-1-(phenylmethyl)propyl]carbamic acid, 1,1-dimethylethyl ester], the inhibition at 10 µM came to 66%.

Consider `CC(C)(C)OC(=O)N[C@@H](Cc1ccccc1)C(=O)CN(Cc1ccccc1)CC(O)[C@H](Cc1ccccc1)NC(=O)OC(C)(C)C` (stereo partly drawn) [Compound 195, [1S-[1R*(3R*)]]-[3-[[3-[[(1,1-Dimethylethoxy)carbonyl]amino]-2-hydroxy-4-phenylbutyl]-(phenylmethyl)amino]-2-oxo-1-(phenylmethyl)propyl]-carbamic acid, 1,1-dimethylethyl ester], for which the inhibition at 10 µM was determined as 0%.

Staying with this assay, now noted: pH 5.5, read-out: HIV Protease % Inhibition at 10 μM.
With `CC(C)(C)COC(=O)N[C@@H](Cc1ccccc1)[C@H](O)CNC[C@@H](O)[C@H](Cc1ccccc1)NC(=O)OCC(C)(C)C` [Compound 139, [1S-(1R*,2S*)]-[Iminobis[2-hydroxy-1-(phenylmethyl)-3,1-propanediyl]]biscarbamic acid, bis(2,2-dimethylpropyl)ester], the inhibition at 10 µM was determined as 73%.

The values are drawn from patent publication US5760036A, “Aminediol protease inhibitors” (E. R. Squibb & Sons, Inc., priority 1995, dated 1998).
